Data reported in patent publication US20030167556A1, “Methods and devices for transdermal delivery of anti-aging compounds for treatment and prevention of facial or neck skin aging” (Consumers Choice Systems, Inc., priority 2002, published 2003).

Key:
[1] = intraduodenal, rats, with 1% (w/v) saline dispersion of polycarbophil; cited from earlier work
peri-orbital skin = assay: Quantitative microtopography of skin casts, depth of deep wrinkles (photoaging); type: in vivo, human
Description: A significant adverse symptom of photoaging is the presence of deep wrinkles. […] In one exemplary protocol, an orbital patch containing CoQ10 in a delivery vehicle or carrier as described above is applied to one eye of a subject, and a control orbital patch containing a delivery vehicle alone is applied around the other eye. Casts are then prepared for quantitative microtopography [see, e.g., Hoppe, et al., J. Soc. Cosmetic Chemists 36: 105-123 (1985), incorporated herein by reference]. Photographs of the skin before treatment show deep wrinkles, which are characteristic of photoaging, whereas fine wrinkles are associated with chronological aging. Using microtopography to measure a reduction in the depth of wrinkles in aged skin, two important parameters can be calculated from the microtopography. They are: Rt which is the mean peak to valley measurement of a defined unit distance, and Rq which is the integrated area of the peaks and troughs. These measurements indicate the variation of the microtopography from a flat surface. […] In certain examples, treatment with an orbital patch containing 0.3% CoQ10 will results in at least a 25% reduction in the mean peak to valley depth of the skin and at least a 25% reduction in the Rq value, compared to controls.

facial skin = assay: Corneocyte surface area (senile xerosis) after facial patch or mask treatment; type: in vivo; conditions: patch or mask containing 0.3% CoQ10, once or twice daily for 7 days, vs delivery vehicle or carrier alone
Description: Although the stratum corneum, the outermost layer of the epidermis, is continuously sloughed off and replaced in healthy individuals, it will display symptoms of aging in the underlying living cells in older subjects. The area of corneocytes, which make up the stratum corneum, is proportional to the time taken for the keratinocyte to differentiate and move from the basal layer to the stratum corneum. In aged skin, the time taken to move through the epidermis increases, and corneocytes become larger. The surface can develop fine lines and become dry and scaly (senile xerosis). As aging progresses, the surface area of corneocytes increases, and thus this value can be measured to determine the effectiveness of an anti-aging treatment (i.e., to decrease the transit time and corneocyte surface area).

human skin = assay: Ultra weak photon emission (UPE) assay of skin after UVA irradiation; type: in vivo; conditions: orbital patch with 0.3% CoQ10 once or twice daily for 7 days, 50 mJ/cm^2 UVA, vs delivery vehicle alone
Description: Oxidative events in human skin in vivo following delivery of CoQ10 via a facial patch or mask of the invention are detected, for example, by means of ultra weak photon emission assay [Sauermann et al., Oxidants & Antioxidants, Methods in Enzymology, L. Packer, ed., Academic Press, 300: 419-428 (1999), incorporated herein by reference]. In the basal state, cells emit low levels of photons. When UVA irradiation is applied there is an excited state with a large increase in the level of photons that decay with time. The level of photons emitted is an indication of the antioxidant status of the skin. If there is an increase in antioxidants, the excitation is less and the level of photons emitted will be reduced. The ultra weak photon emission (UPE) is measured after UVA irradiation in two age groups: (1) aged 18-25 years, (2) aged 60-72 years.

[2] = orbital patch containing 0.3% CoQ10, compared to controls

Row | Compound | increase in bioavailability compared to aqueous solution without polymer [1] | reduction in the Rq value (peri-orbital skin; [2]) | reduction in the mean peak to valley depth of the skin (Rt) (peri-orbital skin; [2]) | depth of deep wrinkles (peri-orbital skin; patch containing 0.3% CoQ10 once daily, at least 2 hours each day, one week to six months, vs vehicle control) | corneocyte area over time (facial skin) | levels of UPE compared to control level (human skin)
1 | 9-desglycinamide, 8-arginine vasopressin [DGAVP] | 3-5 fold |  |  |  |  | 
2 | COC1=C(OC)C(=O)C(C/C=C(\C)CC/C=C(\C)CC/C=C(\C)CC/C=C(\C)CC/C=C(\C)CC/C=C(\C)CC/C=C(\C)CC/C=C(\C)CC/C=C(\C)CCC=C(C)C)=C(C)C1=O [CoQ10, CoEnzyme Q10] |  | ≥ 25% | ≥ 25% | significantly reduced | significant decrease | significantly lower levels
